Experimental data from ChEMBL document CHEMBL1139512, “Further studies on the interaction of the 5-hydroxytryptamine3 (5-HT3) receptor with arylpiperazine ligands. development of a new 5-HT3 receptor ligand showing potent acetylcholinesterase inhibitory properties” (J Med Chem, 2005).

molecular target: T1, Cholinesterase (Homo sapiens, UniProt P06276); assay: Inhibitory concentration against butyrylcholinesterase
T1 sequence (P06276 whole entry): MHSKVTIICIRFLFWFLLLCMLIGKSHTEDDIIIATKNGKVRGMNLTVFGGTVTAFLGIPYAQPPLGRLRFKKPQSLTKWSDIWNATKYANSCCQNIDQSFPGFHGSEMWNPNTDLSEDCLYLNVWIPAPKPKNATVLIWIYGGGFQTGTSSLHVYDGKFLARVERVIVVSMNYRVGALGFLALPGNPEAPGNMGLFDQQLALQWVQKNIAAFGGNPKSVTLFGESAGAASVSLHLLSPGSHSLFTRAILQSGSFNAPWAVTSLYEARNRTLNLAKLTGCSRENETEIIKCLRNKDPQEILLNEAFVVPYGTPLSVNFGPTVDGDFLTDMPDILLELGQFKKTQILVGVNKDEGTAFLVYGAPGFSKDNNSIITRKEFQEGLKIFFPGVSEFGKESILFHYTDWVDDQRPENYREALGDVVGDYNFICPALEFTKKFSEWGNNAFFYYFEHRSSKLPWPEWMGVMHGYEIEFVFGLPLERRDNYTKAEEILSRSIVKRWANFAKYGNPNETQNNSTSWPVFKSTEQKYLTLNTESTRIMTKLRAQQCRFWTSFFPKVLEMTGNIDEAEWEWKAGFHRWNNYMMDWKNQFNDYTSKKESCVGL

SMILES	IC50
Cc1c(N2CCN(C)CC2)nc2ccccc2c1C(=O)NCCCCCCCNc1c2c(nc3ccccc13)CCCC2	40 nM
Cc1c(Cl)nc2ccccc2c1C(=O)NCCCCCCCNc1c2c(nc3ccccc13)CCCC2	32 nM

molecular target: T1, Cholinesterase

SMILES	IC50
Cc1c(N2CCN(C)CC2)nc2ccccc2c1C(=O)N(C)Cc1ccccc1	> 10000 nM
CCOC(=O)c1c(C)c(N2CCN(C)CC2)nc2ccccc12	> 10000 nM

molecular target: T2, Serotonin 3 (5-HT3) receptor (Rattus norvegicus, UniProt P35563+Q9JJ16)
T2 sequence (P35563 whole entry): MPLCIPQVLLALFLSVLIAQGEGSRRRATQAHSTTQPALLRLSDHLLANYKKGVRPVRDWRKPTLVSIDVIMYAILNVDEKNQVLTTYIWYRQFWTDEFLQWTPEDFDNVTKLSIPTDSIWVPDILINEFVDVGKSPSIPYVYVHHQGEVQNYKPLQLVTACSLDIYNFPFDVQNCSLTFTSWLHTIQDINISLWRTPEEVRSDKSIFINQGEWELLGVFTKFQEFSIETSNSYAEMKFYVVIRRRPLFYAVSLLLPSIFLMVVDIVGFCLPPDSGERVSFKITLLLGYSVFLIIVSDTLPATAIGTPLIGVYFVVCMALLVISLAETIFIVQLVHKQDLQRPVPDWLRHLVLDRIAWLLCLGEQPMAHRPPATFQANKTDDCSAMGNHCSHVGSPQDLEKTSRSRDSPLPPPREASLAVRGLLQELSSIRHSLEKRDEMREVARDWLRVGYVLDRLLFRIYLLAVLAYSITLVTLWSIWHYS
T2 sequence (Q9JJ16 whole entry): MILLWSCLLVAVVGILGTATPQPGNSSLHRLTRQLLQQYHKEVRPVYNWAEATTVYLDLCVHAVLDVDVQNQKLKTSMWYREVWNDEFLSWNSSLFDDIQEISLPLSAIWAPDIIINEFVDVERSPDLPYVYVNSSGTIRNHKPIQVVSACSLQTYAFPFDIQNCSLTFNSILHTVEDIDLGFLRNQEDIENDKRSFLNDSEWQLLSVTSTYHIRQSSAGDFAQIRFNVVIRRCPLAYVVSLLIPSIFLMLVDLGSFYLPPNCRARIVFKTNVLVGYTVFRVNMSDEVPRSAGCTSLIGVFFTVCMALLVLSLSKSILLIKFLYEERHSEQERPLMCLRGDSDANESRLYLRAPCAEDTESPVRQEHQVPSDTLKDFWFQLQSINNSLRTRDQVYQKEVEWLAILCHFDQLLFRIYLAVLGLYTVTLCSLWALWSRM

SMILES	Ki
CCCN(CCC)C(=O)c1c(C)c(N2CCN(C)CC2)nc2ccccc12	0.11 nM
CN1CCN(c2cc(C(=O)N(C)Cc3ccccc3)c3ccccc3n2)CC1	0.41 nM
Cc1c(N2CCN(C)CC2)nc2ccccc2c1C(=O)N(C)Cc1ccccc1	0.55 nM
Cc1c(N2CCN(C)CC2)nc2ccccc2c1C(=O)N(C)c1ccc(Cl)cc1	13 nM
CN1CCN(c2nc3ccccc3c3c2CN(C)C3=O)CC1	2.1 nM
CCN1Cc2c(N3CCN(C)CC3)nc3ccccc3c2C1=O	3 nM
CCCCCCN(CCCCCC)C(=O)c1c(C)c(N2CCN(C)CC2)nc2ccccc12	188 nM
C#CCN(C)C(=O)c1c(C)c(N2CCN(C)CC2)nc2ccccc12	0.45 nM
CCCCN(CCCC)C(=O)c1c(C)c(N2CCN(C)CC2)nc2ccccc12	0.78 nM
CN1CCN(c2nc3ccccc3c3c2CN(Cc2ccccc2)C3=O)CC1	6.2 nM
Cc1c(N2CCN(C)CC2)nc2ccccc2c1C(=O)N(C(C)C)C(C)C	2.2 nM
CCOC(=O)c1c(CC)c(N2CCN(C)CC2)nc2ccccc12	0.21 nM
Cc1c(N2CCN(C)CC2)nc2ccccc2c1C(=O)c1ccccc1	0.84 nM
CCCN(CCC)C(=O)c1cc(N2CCN(C)CC2)nc2ccccc12	0.68 nM
CCOC(=O)c1cc(N2CCN(C)CC2)nc2ccccc12	0.85 nM
CCCc1c(N2CCN(C)CC2)nc2ccccc2c1C(=O)N(CC)CC	0.92 nM
Cc1c(N2CCN(C)CC2)nc2ccccc2c1C(=O)N1CCCC1	1.6 nM
CCCN(CCC)C(=O)c1c(CC)c(N2CCN(C)CC2)nc2ccccc12	1.1 nM

SMILES	Ki
CCCc1c(N2CCN(C)CC2)nc2ccccc2c1C(=O)N(CCC)CCC	1.2 nM
Cc1c(N2CCN(C)CC2)nc2ccccc2c1C(=O)NCCCCCCCNc1c2c(nc3ccccc13)CCCC2	5.6 nM
CN1CCN(c2nc3ccccc3c3c2COC3=O)CC1	2.4 nM
CCN(CC)C(=O)c1cc(N2CCN(C)CC2)nc2ccccc12	1.6 nM
CCOC(=O)c1c(N2CCN(C)CC2)nc2ccccc2c1C	0.17 nM
CCCN1Cc2c(N3CCN(C)CC3)nc3ccccc3c2C1=O	3.6 nM
CCc1c(N2CCN(C)CC2)nc2ccccc2c1C(=O)N(CC)CC	0.51 nM
CCN(CC)C(=O)c1c(C)c(N2CCN(C)CC2)nc2ccccc12	0.37 nM
CN1CCN(c2nc3ccccc3c(CO)c2CO)CC1	2.7 nM
CCC(C)N1Cc2c(N3CCN(C)CC3)nc3ccccc3c2C1=O (stereo not drawn)	4.2 nM
CCCc1c(N2CCN(C)CC2)nc2ccccc2c1C(=O)N(C)Cc1ccccc1	14 nM
CCOC(=O)c1c(C)c(N2CCNCC2)nc2ccccc12	0.56 nM
CCc1c(N2CCN(C)CC2)nc2ccccc2c1C(=O)N(C)Cc1ccccc1	10 nM
CCOC(=O)c1c(C)c(N2CCN(C)CC2)nc2ccccc12	0.43 nM
CCCCCN(CCCCC)C(=O)c1c(C)c(N2CCN(C)CC2)nc2ccccc12	19 nM
CCCc1c(N2CCN(C)CC2)nc2ccccc2c1C(=O)OCC	0.08 nM
CN1CCN(c2nc3ccccc3c3c2CCC3)CC1	0.24 nM

molecular target: T3, Acetylcholinesterase (Homo sapiens, UniProt P22303)
T3 sequence (P22303 whole entry): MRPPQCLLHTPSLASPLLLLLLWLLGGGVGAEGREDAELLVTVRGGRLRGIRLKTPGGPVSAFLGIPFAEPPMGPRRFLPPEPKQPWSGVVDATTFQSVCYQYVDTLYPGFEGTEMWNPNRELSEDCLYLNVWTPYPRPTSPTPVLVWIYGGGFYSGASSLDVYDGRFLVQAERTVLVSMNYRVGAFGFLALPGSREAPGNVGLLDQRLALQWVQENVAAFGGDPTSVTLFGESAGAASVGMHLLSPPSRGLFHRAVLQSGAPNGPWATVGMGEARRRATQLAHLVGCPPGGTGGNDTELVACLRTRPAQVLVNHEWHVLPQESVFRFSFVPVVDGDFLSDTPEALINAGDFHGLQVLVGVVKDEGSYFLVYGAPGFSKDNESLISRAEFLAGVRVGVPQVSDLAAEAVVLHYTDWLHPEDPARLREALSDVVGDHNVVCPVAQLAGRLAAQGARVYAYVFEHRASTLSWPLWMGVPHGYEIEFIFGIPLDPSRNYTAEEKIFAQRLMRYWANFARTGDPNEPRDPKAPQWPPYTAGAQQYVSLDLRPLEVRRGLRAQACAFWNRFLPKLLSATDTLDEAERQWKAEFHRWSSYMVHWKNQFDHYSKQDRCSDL
Description: (§1) Inhibitory concentration against human acetylcholinesterase

SMILES	IC50
Cc1c(N2CCN(C)CC2)nc2ccccc2c1C(=O)N(C)Cc1ccccc1	> 10000 nM
CCOC(=O)c1c(C)c(N2CCN(C)CC2)nc2ccccc12	> 10000 nM

molecular target: T3, Acetylcholinesterase; remark: another data set of the same source
Description: as §1

SMILES	IC50
Cc1c(N2CCN(C)CC2)nc2ccccc2c1C(=O)NCCCCCCCNc1c2c(nc3ccccc13)CCCC2	4.1 nM
Cc1c(Cl)nc2ccccc2c1C(=O)NCCCCCCCNc1c2c(nc3ccccc13)CCCC2	3 nM
